Assay [1] deals with T1, PDZ protein (GST-PDZ fusion) (Homo sapiens, UniProt Q9UDY2).
T1 construct: made in house; host or cells: E. coli (DH5alpha, BL21 or JM109)
T1 sequence (Q9UDY2 1-1190): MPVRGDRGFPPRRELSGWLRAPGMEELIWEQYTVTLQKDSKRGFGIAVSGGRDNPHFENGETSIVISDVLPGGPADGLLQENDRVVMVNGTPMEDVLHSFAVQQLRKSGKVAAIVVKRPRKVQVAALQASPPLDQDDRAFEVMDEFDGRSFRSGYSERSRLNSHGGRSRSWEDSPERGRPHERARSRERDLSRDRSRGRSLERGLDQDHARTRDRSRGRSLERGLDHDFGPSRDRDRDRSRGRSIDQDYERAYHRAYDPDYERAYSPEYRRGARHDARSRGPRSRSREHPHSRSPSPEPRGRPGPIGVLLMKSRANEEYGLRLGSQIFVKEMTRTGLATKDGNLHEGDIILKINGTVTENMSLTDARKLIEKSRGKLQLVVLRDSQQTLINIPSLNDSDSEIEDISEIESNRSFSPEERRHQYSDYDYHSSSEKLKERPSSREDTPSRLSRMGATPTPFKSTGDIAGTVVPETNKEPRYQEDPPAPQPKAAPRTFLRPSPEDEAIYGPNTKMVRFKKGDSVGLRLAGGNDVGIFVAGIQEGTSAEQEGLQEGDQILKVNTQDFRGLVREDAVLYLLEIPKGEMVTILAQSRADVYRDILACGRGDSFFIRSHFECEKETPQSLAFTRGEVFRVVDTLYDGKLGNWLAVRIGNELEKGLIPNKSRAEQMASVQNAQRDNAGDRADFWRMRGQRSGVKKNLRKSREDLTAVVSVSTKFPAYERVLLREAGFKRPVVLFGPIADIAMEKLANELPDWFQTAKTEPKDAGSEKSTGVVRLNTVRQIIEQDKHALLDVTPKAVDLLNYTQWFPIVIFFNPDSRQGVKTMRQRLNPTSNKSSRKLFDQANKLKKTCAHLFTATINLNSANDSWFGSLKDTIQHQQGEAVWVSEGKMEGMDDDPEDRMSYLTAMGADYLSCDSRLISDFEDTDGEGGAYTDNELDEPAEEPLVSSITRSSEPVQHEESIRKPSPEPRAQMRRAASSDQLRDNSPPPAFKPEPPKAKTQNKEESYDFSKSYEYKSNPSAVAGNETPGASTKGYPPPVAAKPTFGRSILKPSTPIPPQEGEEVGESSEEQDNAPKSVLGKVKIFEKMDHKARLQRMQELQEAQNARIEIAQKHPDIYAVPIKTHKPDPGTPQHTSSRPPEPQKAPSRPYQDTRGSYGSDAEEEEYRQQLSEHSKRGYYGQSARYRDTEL
The experiment in a line: G' assay (10 uM PL peptide), results of TABLE 7 and TABLE 12. Particulars: PDZ ZO-2, PDZ Domain 1. In kind it is binding. Put shortly:
(§1)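 Biotinylated PL peptides at 10 uM (vs 20 uM in G^0 assay) bound to GST-PDZ fusions; PDZ protein at 5 ug/ml unless another concentration listed. Bound peptide read as A450 nm, classified 0–5 (0 = A450 0; 5 = A450 >4 repeated).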

Assay [2] has as its target T2, PDZ protein (GST-PDZ fusion) (Homo sapiens, UniProt Q5T2W1).
T2 construct: made in house; host or cells: E. coli (DH5alpha, BL21 or JM109)
T2 sequence (Q5T2W1 1-519): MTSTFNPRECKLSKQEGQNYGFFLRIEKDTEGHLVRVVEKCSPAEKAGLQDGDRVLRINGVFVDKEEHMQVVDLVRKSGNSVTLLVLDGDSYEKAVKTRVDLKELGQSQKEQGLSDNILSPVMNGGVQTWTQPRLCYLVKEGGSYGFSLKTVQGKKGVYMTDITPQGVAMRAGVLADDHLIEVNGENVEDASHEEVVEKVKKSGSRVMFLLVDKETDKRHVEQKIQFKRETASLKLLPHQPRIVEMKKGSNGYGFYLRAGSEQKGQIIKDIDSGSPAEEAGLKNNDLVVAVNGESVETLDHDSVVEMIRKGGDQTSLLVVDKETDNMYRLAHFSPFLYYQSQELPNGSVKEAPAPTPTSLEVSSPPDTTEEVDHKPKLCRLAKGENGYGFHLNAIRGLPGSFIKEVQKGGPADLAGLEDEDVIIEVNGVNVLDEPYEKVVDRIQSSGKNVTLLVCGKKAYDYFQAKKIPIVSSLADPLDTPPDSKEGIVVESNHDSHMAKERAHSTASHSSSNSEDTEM
The description is as above. It counts as binding. Particulars: PDZ PDZK1, PDZ Domain 2, 3, 4. Put shortly: as §1

SMILES strings stand for the structures. Peptide text beside a SMILES is read from it. * marks the point of attachment. Biotin = O=C1N[C@H]2[C@H](CS[C@H]2CCCCC(=O)*)N1

For `CC(C)C[C@H](NC(=O)[C@H](C)NC(=O)[C@@H](NC(=O)[C@H](CCC(=O)O)NC(=O)[C@H](CCCNC(=N)N)NC(=O)[C@H](CCCNC(=N)N)NC(=O)CNC(=O)[C@H](CCC(N)=O)NC(=O)[C@H](CC(C)C)NC(=O)[C@H](CCCNC(=N)N)NC(=O)CNC(=O)CNC(=O)[C@H](CCCNC(=N)N)NC(=O)[C@H](C)NC(=O)[C@H](CO)NC(=O)[C@H](CCCNC(=N)N)NC(=O)CNC(=O)CNC(=O)[C@H](C)NC(=O)[C@H](C)NC(=O)CCCC[C@@H]1SC[C@@H]2NC(=O)N[C@@H]21)[C@@H](C)O)C(=O)O` [HPV E6 33 (modified)] (Biotin-AAGGRSARGGRLQGRRETAL-OH; C-terminus assumed), the Classification in assay [1] and in assay [2] was 1 (A450 nm 0-1) each time.
For the compound `CC(C)C[C@H](NC(=O)[C@H](CCCNC(=N)N)NC(=O)CNC(=O)CNC(=O)[C@H](CCCNC(=N)N)NC(=O)[C@H](C)NC(=O)[C@@H]1CCCN1C(=O)[C@H](CCCNC(=N)N)NC(=O)CNC(=O)CNC(=O)[C@@H](NC(=O)[C@H](C)NC(=O)CCCC[C@@H]1SC[C@@H]2NC(=O)N[C@@H]21)C(C)C)C(=O)N[C@@H](CCC(N)=O)C(=O)NCC(=O)N[C@@H](CCCNC(=N)N)C(=O)N[C@@H](CCCNC(=N)N)C(=O)N[C@@H](CCC(N)=O)C(=O)N[C@H](C(=O)N[C@@H](CCC(N)=O)C(=O)N[C@H](C(=O)O)C(C)C)[C@@H](C)O` [HPV E6 58 (modified)] (Biotin-AVGGRPARGGRLQGRRQTQV-OH; C-terminus assumed), the Classification was 3 (A450 nm 2-3) in assay [1] and 1 (A450 nm 0-1) in assay [2].

For the origin of these results see patent US20050282743A1, “Molecular interactions in cells” (Arbor Vita Corporation, priority 2001, published 2005).
